In patent publication US8680159B2, “Bradykinin 1 receptor modulating compounds” (Gruenenthal GmbH, priority 2010, dated 2014):

Assays:
[1] = biological target: T1, B1R receptor of the rat (CHO K1 cells stably transfected with the B1R gene of the rat) (Rattus norvegicus, UniProt P97583); assay: Functional study on the bradykinin receptor 1 (B1R), Ca2+ fluorescence (Fluo-4) FLIPR/Novostar assay, rB1R cells; type: cell-based; conditions: CHO-K1, 10 μM, read-out: % inhibition (rat B1R) at 10 μM
T1 construct: expressed in transfected cells; host or cells: CHO K1 cells (Chinese hamster ovary), stably transfected
T1 sequence (P97583 1-337): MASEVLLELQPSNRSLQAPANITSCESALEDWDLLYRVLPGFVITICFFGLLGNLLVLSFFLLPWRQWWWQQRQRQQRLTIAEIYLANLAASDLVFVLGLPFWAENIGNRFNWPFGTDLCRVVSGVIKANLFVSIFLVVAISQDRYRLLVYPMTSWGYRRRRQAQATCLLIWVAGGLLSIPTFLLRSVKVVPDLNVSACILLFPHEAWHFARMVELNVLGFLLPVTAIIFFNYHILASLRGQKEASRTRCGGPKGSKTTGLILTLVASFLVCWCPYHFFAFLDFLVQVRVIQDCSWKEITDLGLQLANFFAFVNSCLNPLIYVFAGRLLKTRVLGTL
Method in brief: (§1)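 Stably transfected CHO K1 cells carrying human or rat B1R were Fluo-4 loaded and Ca2+ fluorescence read by FLIPR or Novostar. Compounds were added first at 10 μM for % activation, then the EC80 agonist was applied after 6-20 min (human: Lys-Des-Arg9-bradykinin; rat: Des-Arg9-bradykinin). % inhibition is relative to maximum achievable inhibition, and IC50 comes from concentration series.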

[2] = biological target: T2, human B1R receptor (CHO K1 cells stably transfected with the human B1R gene) (Homo sapiens, UniProt P46663); assay: Functional study on the bradykinin receptor 1 (B1R), Ca2+ fluorescence (Fluo-4) FLIPR/Novostar assay, hB1R cells; type: cell-based; conditions: CHO-K1, read-out: % inhibition (human B1R) at 10 μM
T2 construct: expressed in transfected cells; host or cells: CHO K1 cells (Chinese hamster ovary), stably transfected
T2 sequence (P46663 1-353): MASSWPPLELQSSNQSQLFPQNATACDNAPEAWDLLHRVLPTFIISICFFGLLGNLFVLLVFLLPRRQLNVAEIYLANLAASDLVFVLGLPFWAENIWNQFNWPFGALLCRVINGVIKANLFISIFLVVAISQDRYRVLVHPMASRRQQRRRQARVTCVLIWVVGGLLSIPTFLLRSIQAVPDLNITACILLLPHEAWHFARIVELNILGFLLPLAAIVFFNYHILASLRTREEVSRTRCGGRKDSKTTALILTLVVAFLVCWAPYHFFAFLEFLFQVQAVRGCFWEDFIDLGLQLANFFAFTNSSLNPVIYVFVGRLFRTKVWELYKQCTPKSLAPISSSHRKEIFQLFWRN
Method in brief: as §1

Structure (SMILES)	inhibition at 10 µM [1]	inhibition at 10 µM [2]
Cc1cc(N2CCC(N(C)C(=O)c3ccc4c(c3)[C@H](NC(=O)c3ccc(F)cc3Cl)CC4)CC2)nc(C)n1 [Example H-165, (3R)-3-[(2-Chloro-4-fluoro-benzoyl)amino]-N-[1-(2,6-dimethyl-pyrimidin-4-yl)-piperidin-4-yl]-N-methyl-2,3-dihydro-1H-indene-5-carboxylic acid amide]	105%	100%
Cc1cc(N2CCC(N(C)C(=O)c3ccc4c(c3)[C@H](N(C(=O)c3ccccc3Cl)C(C)C)CC4)CC2)nc(C(C)C)n1 [Example H-166, (3R)-3-[(2-Chloro-benzoyl)-isopropyl-amino]-N-[1-(2-isopropyl-6-methyl-pyrimidin-4-yl)-piperidin-4-yl]-N-methyl-2,3-dihydro-1H-indene-5-carboxylic acid amide]	55%	100%
CCN(C(=O)c1ccc(F)cc1Cl)[C@@H]1CCc2ccc(C(=O)N(C)C3CCN(c4cc(C)nc(C)n4)CC3)cc21 [Example H-167, (3R)-3-[(2-Chloro-4-fluoro-benzoyl)-ethyl-amino]-N-[1-(2,6-dimethyl-pyrimidin-4-yl)-piperidin-4-yl]-N-methyl-2,3-dihydro-1H-indene-5-carboxylic acid amide]	109%	100%
Cc1cc(N2CCC(N(C)C(=O)c3ccc4c(c3)[C@H](N(C)C(=O)c3ccc(F)cc3Cl)CC4)CC2)nc(C)n1 [Example H-168, (3R)-3-[(2-Chloro-4-fluoro-benzoyl)-methyl-amino]-N-[1-(2,6-dimethyl-pyrimidin-4-yl)-piperidin-4-yl]-N-methyl-2,3-dihydro-1H-indene-5-carboxylic acid amide]	104%	100%
Cc1cc(N2CCC(N(C)C(=O)c3ccc4c(c3)[C@H](N(C)C(=O)c3ccccc3C)CC4)CC2)nc(C)n1 [Example H-169, (3R)-N-[1-(2,6-Dimethyl-pyrimidin-4-yl)-piperidin-4-yl]-N-methyl-3-[methyl-(2-methyl-benzoyl)-amino]-2,3-dihydro-1H-indene-5-carboxylic acid amide]	106%	100%
CCN(C(=O)c1ccccc1C)[C@@H]1CCc2ccc(C(=O)N(C)C3CCN(c4cc(C)nc(C)n4)CC3)cc21 [Example H-170, (3R)-N-[1-(2,6-Dimethyl-pyrimidin-4-yl)-piperidin-4-yl]-3-[ethyl-(2-methyl-benzoyl)-amino]-N-methyl-2,3-dihydro-1H-indene-5-carboxylic acid amide]	106%	100%
Cc1cc(N2CCC(N(C)C(=O)c3ccc4c(c3)[C@H](N(C)C(=O)c3cccnc3C(F)(F)F)CC4)CC2)nc(C)n1 [Example H-171, N-[(1R)-6-[[1-(2,6-Dimethyl-pyrimidin-4-yl)-piperidin-4-yl]-methyl-carbamoyl]-2,3-dihydro-1H-inden-1-yl]-N-methyl-2-(trifluoromethyl)pyridine-3-carboxylic acid amide]	104%	100%
CC(C)N(C(=O)c1ccc2c(c1)[C@H](NC(=O)c1ccccc1Cl)CC2)C1CCN(c2ccncc2)CC1 [Example H-178, (3R)-3-[(2-Chloro-benzoyl)amino]-N-isopropyl-N-(1-pyridin-4-yl-piperidin-4-yl)-2,3-dihydro-1H-indene-5-carboxylic acid amide]	101%	100%
Cc1cc(N2CCC(N(C)C(=O)c3ccc4c(c3)[C@H](NC(=O)C(C)(C)F)CC4)CC2)ccn1 [Example H-179, (3R)-3-[(2-Fluoro-2-methyl-propanoyl)amino]-N-methyl-N-[1-(2-methyl-pyridin-4-yl)-piperidin-4-yl]-2,3-dihydro-1H-indene-5-carboxylic acid amide]	100%	94%
